The nature of data set [1]: Plasma protein binding (rapid equilibrium dialysis). The format is in vitro ADME. The settings on record: for fraction unbound at 5 h, 10 µM: read-out: % Bound in Plasma ± SD (converted); for recovery at 5 h, 10 µM: read-out: % Recovery ± SD. As to the method:
In vitro evaluation of test compounds for protein binding in plasma was performed using the rapid equilibrium dialysis method. Ready to use PBS, 9.07-10.00 g, (Sigma Aldrich, catalogue code P3813) was dissolved in 1l of MilliQ water and pH was adjusted to 7.4. 10 mM stock of the test compound was prepared in DMSO. 1 mM solution was prepared by diluting 10 mM stock in methanol. 10 µM working stock was prepared in plasma by spiking 3 µl of 1 mM solution into 297 µl of plasma. An aliquot of 200 µl of plasma containing test compound was spiked into donor well (red chamber) of the insert. 350 µl of PBS was spiked into receiver well (white chamber) of the insert. The plate was incubated at 37 °C in thermo-mixer at 400 rpm for 5 hours. The samples were matrix equilibrated with opposite matrix: 25 µl of plasma sample was matched with 25 µl of blank buffer (PBS) and 25 µl of buffer sample was matched with 25 µl of plasma.
Matrix matched samples were precipitated with 200 µl of acetonitrile containing Telmisartan 100 ng/ml as internal standard. Buffer samples were of phosphate buffer saline pH 7.4 incubated for 5.5 h along with plasma samples. Blank samples were the ones matched with Phosphate buffer Saline pH 7.4 maintained at room temperature.
Samples were vortexed at 1000 rpm for 5 min and centrifuged at 4000 rpm for 10 min. Supernatant was separated, diluted 2 fold with water and analyzed in LC-MS/MS.
To control samples were processed immediately after the preparation of plasma working stock solutions. These samples serve as a measure for calculating the percentage recovery from plasma and buffer of test compounds. The percentage of plasma unbound (% Unbound) and bound (% Bound) fractions were calculated by the following equations: %Unbound = (1−((Tc−Fc))/(Tc))∗100 [formula] %Bound = 100−%Unbound [formula] %Recovery = 100∗(Fc + Tc)/(T0) [formula]
TC = Compound concentration as determined by the calculated concentration on the plasma side of the membrane (donor well); FC = Free compound concentration as determined by the calculated concentration on the buffer side of the membrane (receiver well); T0 = Total compound concentration as determined before dialysis.
The API400 MS and Agilent 1260 Multi sampler LC were used, with 10 uL injection volumes. Typically, plasma protein binding is determined over ≥ 4 hours at 37°C. Under these conditions chemical and/or enzymatic degradation of compounds can occur. The determination of compound recovery is, therefore, of pivotal importance. A low % recovery can flag a variety of potential problems: • The compound is hydrolytically or metabolically unstable • The compound is highly bound to the rapid equilibrium dialysis device • The compound is poorly soluble
(In equilibrium dialysis only unbound substance equilibrates across the membrane.)

The target of data set [2] is DDX3X (Homo sapiens, UniProt O00571). The data set can be described thus: nanoDSF enzymatic binding (melting temperature shift). Also noted: human DDX3X (residues 132-607, UniProtID: 000571, produced by Proteros GmbH); purchased Proteros GmbH. The settings on record: Compound 100 µM, DDX3 4 µM. The text has this: The binding of compounds to DDX3X have been assessed by nanoDSF analysis (NanoTemper Technologies GmbH, Flößergasse 4, 81369 München, Germany). NanoDSF technology is a Differential Scanning Fluorimetry method which measures the protein stability with high resolution without the need of a dye. In particular it measures the changes of the intrinsic tryptophan fluorescence at 330 and 350 nm and it is used to determine the melting temperature of a protein. In the folded state the residues of tryptophan are buried in the hydrophobic core. During denaturation the residues are more exposed and the fluorescence changes in both intensity and wavelength. In a typical experiment, the protein is mixed with the ligand in the reaction buffer and transferred into a capillary. The fluorescence is monitored over temperature gradient between 20 and 95°C with an increment of 2.5°C per minute. The interaction of the ligand to the folded state of the protein shifts the protein melting temperature (Tm) at higher or lower temperature.
Experimental conditions: the experiments were conducted with the device Prometheus NT.48 (NanoTemper Technologies GmbH), the enzyme used was the human DDX3X (residues 132-607, UniProtID: 000571, produced by Proteros GmbH). The assessed compounds were dissolved in pure DMSO adequate to obtain a concentration of compound of 100µM and DMSO 1% (v:v) in final solution. Reaction buffer for DDX3X was 20 mM HEPES, pH 7.5, 0.5 mM TCEP, 500 mM NaCl, 10% (v:v) Glycerin, with a final reaction volume of 10 µL and a final DMSO concentration of 1% (v:v). The reaction was performed in "High sensitivity capillaries" in the range of 20-95°C with a heating rate of 2.5°C/min, with an incubation time of 60 minutes.
• 1) Add appropriate volume of target enzyme in reaction buffer • 2) Add compound(s) in 100% DMSO (1% final DMSO conc.) • 3) Fill the capillary • 4) Measure fluorescence
The assay development was performed with DDX3X protein alone showing a Tm at 54.6 °C.
Binding of compound 5 was assessed with the NanoDSF technique, evaluating the association of the aforementioned compound with APO DDX3X and in presence of a competitor for the ATP binding site, Adenylyl imidodiphosphate (AMPPNP) to assess competition of compound 5 for the DDX3X ATP binding site. Table 6. Final protein and compound concentrations in the various assay setup:
All the measures were performed in triplicate and the average (Mean Tm) and standard deviation (SD) were calculated with the following equations: [formula] and SD = sqrt((∑((Tm−Mean Tm))^2)/(n−1)) [formula]
A change of 5xSD from the 1% DMSO control mean is considered to be a significant Tm change. Test of DDX3X with 1% DMSO was performed to obtain the reference melting temperature of the protein alone. Compounds are considered as binders if the Tm shifts by >= 5 times the standard deviation of the control (protein in the absence of compound). Table 7. DDX3X melting temperatures (Tm) at various experimental conditions
In general terms: DSF heats the sample and reads unfolding from a dye or from intrinsic fluorescence.

Each structure is given as a SMILES string. Where two headings read alike, the source gives them in different places.

Chain of DDX3X (O00571 132-607): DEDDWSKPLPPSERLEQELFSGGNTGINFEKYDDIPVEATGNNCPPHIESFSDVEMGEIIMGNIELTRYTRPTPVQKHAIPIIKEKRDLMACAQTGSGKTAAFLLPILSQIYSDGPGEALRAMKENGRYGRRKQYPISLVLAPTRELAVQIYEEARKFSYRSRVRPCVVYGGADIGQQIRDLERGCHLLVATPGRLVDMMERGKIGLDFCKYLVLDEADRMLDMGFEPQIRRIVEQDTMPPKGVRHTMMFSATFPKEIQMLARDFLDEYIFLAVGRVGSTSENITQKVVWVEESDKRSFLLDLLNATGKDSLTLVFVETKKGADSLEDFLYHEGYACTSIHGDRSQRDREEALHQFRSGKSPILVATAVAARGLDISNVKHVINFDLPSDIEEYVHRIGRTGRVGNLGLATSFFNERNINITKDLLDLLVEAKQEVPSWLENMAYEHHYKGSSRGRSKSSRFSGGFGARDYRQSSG

For `CCCCc1cn(-c2ccc(-c3nnc(-c4ccccc4C(F)(F)F)o3)cc2)nn1` [Compound 5], the results for the fraction unbound at 5 h, 10 µM in data set [1] (Human plasma), in data set [1] (Mouse plasma) and in data set [1] (Rat plasma) were 0.0022, 0.0003 and 0.0005, respectively. The recovery at 5 h, 10 µM is 79 ± 0.99% in data set [1] (Human plasma), 83.7 ± 13.4% in data set [1] (Mouse plasma) and 63.4 ± 2.74% in data set [1] (Rat plasma). Further, the “Comment (Tm shift)” value is “significant Tm shift to higher Tm, compound interference” in data set [2] (AMPPNP 100 µM) and “significant Tm shift to higher Tm, compound interference” in data set [2] (no AMPPNP). In addition, the “Mean Tm” value in data set [2] (AMPPNP 100 µM) was found to be 56.8 °C; in data set [2] (no AMPPNP), 56.9 °C.

For the origin of these results see patent EP4050002A1, “ANTI-PROLIFERATIVE AGENTS” (First Health Pharmaceuticals B.V., priority 2021, dated 2022).
